Patent publication US9067920B2, “Compounds useful for inhibiting Chk1” (Eli Lilly and Company, priority 2010, dated 2015)

Molecular target: T1, Chk1 (Homo sapiens, UniProt O14757)
T1 sequence (O14757 1-476): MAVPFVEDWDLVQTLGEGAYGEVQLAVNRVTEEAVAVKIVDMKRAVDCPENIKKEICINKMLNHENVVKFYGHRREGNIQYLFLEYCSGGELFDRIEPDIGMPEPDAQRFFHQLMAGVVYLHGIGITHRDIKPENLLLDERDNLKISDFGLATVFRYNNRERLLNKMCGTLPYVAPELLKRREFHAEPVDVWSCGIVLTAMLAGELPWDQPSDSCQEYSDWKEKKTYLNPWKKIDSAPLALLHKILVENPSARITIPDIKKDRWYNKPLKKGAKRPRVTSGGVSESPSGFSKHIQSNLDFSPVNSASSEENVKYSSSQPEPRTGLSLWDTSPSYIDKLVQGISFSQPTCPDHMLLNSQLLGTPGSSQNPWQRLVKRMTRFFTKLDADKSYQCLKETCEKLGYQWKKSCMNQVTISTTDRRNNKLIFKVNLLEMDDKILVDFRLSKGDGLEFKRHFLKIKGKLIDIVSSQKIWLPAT
Assay: Chk1 autophosphorylation cell based assay (phospho-Chk1 serine 296 immunoblot, doxorubicin-treated HeLa cells)
Parameters: endogenous in cells; host or cells: HeLa
Settings: 100 nM doxorubicin, 2 h compound, read-out: EC50 (inhibition of doxorubicin induced Chk1 autophosphorylation)
Description: An inhibitor of Chk1 will prevent the kinase activity of the protein from phosphorylating substrates in cells in which the DNA damage response has been activated. An easily detectable substrate for Chk1 is an autophosphorylation site on Chk1 itself, serine 296. The following immunoblot assay can be used to measure the amount of phosphorylation of serine 296 on Chk1 and indirectly the activity level of the Chk1 protein kinase, HeLa cells are cultured in MEM w/Earle's Balanced Salt Solution with L-glutamine supplemented with 10% (v/v) heat inactivated fetal bovine serum, 1×MEM non-essential amino acids, 1× sodium pyruvate and 1×10^5 cells plated in 600 μL of MEM culture media per well of a […] cell culture plate. Cells are incubated for 24 h at 37° C., 5% CO2 and […]. Sixteen μL of a 4 μM stock of doxorubicin in culture media are added to each appropriate well to make a final concentration of 100 nM doxombicin. Plates are returned to the incubator for 24 additional hours prior to Chk1 inhibitor compound addition. […] Antigen-antibody-reporter conjugates immobilized on the membrane are detected with the Super Signal Western Femto HRP-detection reagent using a FUJI LAS-4000 imaging system. Phospho-Chk1 (ser296) band intensities are calculated using “Total Lab” software (Nonlinear Dynamics). […]

EC50: < 1 nM
SMILES: COc1nc(C)ccc1-c1cc(Nc2cncc(O[C@@H]3CCCNC3)n2)[nH]n1 [Example 1, (R)-[5-(2-Methoxy-6-methyl-pyridin-3-yl)-2H-pyrazol-3-yl]-[6-(piperidin-3-yloxy)-pyrazin-2-yl]-amine]
